Measured values published in PMC11257079 (Environmental science and pollution research international, 2024).
Values after ≈ are worked out from the molar mass of the structure shown. Where two headings read alike, the source gives them in different places.

Assays:
[1] = system: Lemna minor; experiment: whole plant or invertebrate; assay type: in vivo; details: for EC50 / inhibition at 1.3 µM: Lemna minor, 168 h
[2] = system: Caenorhabditis elegans; experiment: whole plant or invertebrate; assay type: in vivo; details: for EC50: Caenorhabditis elegans, 48 h
[3] = system: Hydra vulgaris; experiment: Hydra vulgaris assay; assay type: in vivo; details: 92 h, read-out: Morphology EC50
[4] = ref PubChem, NIH; cited from earlier work
[5] = at neutral pH and 20–25°C; ref PubChem, NIH; cited from earlier work
[6] = read-out: Chlorophyll Content EC50
[7] = 168 hour (7 day), 95% confidence interval in brackets
[8] = 48 hour, 95% confidence interval in brackets
[9] = 168 hour (7 day), 95% confidence interval in brackets, listed as pentachlorophenol

Oc1c(Cl)cc(Cl)cc1Cl [2,4,6-trichlorophenol]
EC50 [1, 6]: 4 µM | EC50 ([1]; read-out: Frond Number EC50): 3.6 µM | inhibition at 1.3 µM ([1]; read-out: Inhibition of frond number): -3 ± 7% | inhibition at 1.3 µM ([1]; read-out: Inhibition of surface area): 5.8 ± 0.9% | EC50 ([1]; read-out: Surface Area EC50): 3.5 µM | Chlorophyll Content EC10 ([1]; in vivo): 0.0011 (0.0003–0.0018) mM | Decrease in chlorophyll content ([1]; in vivo): 15 ± 3% | Frond Number EC10 ([1]; in vivo): 0.0019 (0.0015–0.0023) mM | Surface Area EC10 ([1]; in vivo): 0.0016 (0.0011–0.0021) mM | EC50 ([2]; read-out: Body Length EC50): 180 µM | EC50 ([2]; read-out: Nose Touch EC50): 250 µM | EC50 ([2]; read-out: Survival EC50): 230 µM | Body Length EC10 ([2]; in vivo): 0.12 (0.094–0.14) mM | Decrease in nematode survival ([2]; in vivo): 2.6 ± 4% | Impairment to behavior (nose touch response) ([2]; in vivo): 16 ± 3% | Impairment to body length ([2]; in vivo): 5.9 ± 4% | Nose Touch EC10 ([2]; in vivo): 0.12 (0.11–0.15) mM | Survival EC10 ([2]; in vivo): 0.19 (0.15–0.23) mM

CNC(=O)O/N=C/C(C)(C)SC [Aldicarb]
EC50 [3]: 4.6 µM | Chlorophyll Content EC10 [1, 7]: 0.096 (0.017–0.17) mM | Frond Number EC10 [1, 7]: 0.40 (0.28–0.52) mM | Surface Area EC10 [1, 7]: 1.0 (0–3.9) mM | EC50 [1, 6]: 110 µM | EC50 ([1]; read-out: Frond Number EC50): 1260 µM | EC50 ([1]; read-out: Surface Area EC50): 11000 µM | Body Length EC10 [2, 8]: 0.22 (0–0.62) mM | Nose Touch EC10 [2, 8]: 0.27 (0–1.6) mM | Survival EC10 [2, 8]: 0.47 (0.29–0.65) mM | EC50 ([2]; read-out: Body Length EC50): 250 µM | EC50 ([2]; read-out: Nose Touch EC50): 9600 µM | EC50 ([2]; read-out: Survival EC50): 650 µM | LogP [4]: 1.1

CCOP(=S)(OCC)Oc1cc(C)nc(C(C)C)n1 [Diazinon]
EC50 [3]: 55 µM | Chlorophyll Content EC10 [1, 7]: 0.016 (0–0.071) mM | Frond Number EC10 [1, 7]: 0.030 (0–0.140) mM | Surface Area EC10 [1, 7]: 0.031 (0–0.12) mM | Chlorophyll Content EC10 ([1]; 168 hour (7 day), 95% confidence interval in brackets, listed as diazinon): 0.0016 mM | EC50 [1, 6]: 260 µM | EC50 ([1]; read-out: Frond Number EC50): 330 µM | EC50 ([1]; read-out: Surface Area EC50): 570 µM | Body Length EC10 [2, 8]: 0.016 (0.0083–0.024) mM | Nose Touch EC10 [2, 8]: 0.080 (0.068–0.093) mM | Survival EC10 [2, 8]: 0.057 (0.052–0.061) mM | EC50 ([2]; read-out: Body Length EC50): 77 µM | EC50 ([2]; read-out: Nose Touch EC50): 120 µM | EC50 ([2]; read-out: Survival EC50): 71 µM

O=C(O)CNCP(=O)(O)O [Glyphosate]
EC50 [3]: 160 µM | Chlorophyll Content EC10 [1, 7]: 0.054 (0–0.30) mM | Frond Number EC10 [1, 7]: 0.034 (0.022–0.046) mM | Surface Area EC10 [1, 7]: 0.053 (0.036–0.071) mM | EC50 [1, 6]: 94 µM | EC50 ([1]; read-out: Frond Number EC50): 57 µM | EC50 ([1]; read-out: Surface Area EC50): 60 µM | Body Length EC10 [2, 8]: 0.22 (0.13–0.31) mM | Nose Touch EC10 [2, 8]: 0.15 NA mM | Survival EC10 [2, 8]: 0.21 NA mM | EC50 ([2]; read-out: Body Length EC50): 250 µM | EC50 ([2]; read-out: Nose Touch EC50): 1000 µM | EC50 ([2]; read-out: Survival EC50): 360 µM | LogP [4]: −4.6 | Solubility in water [5]: 1050 µg/mL (≈ 6.21 mM)

Cl[C@H]1[C@H](Cl)[C@@H](Cl)[C@@H](Cl)[C@H](Cl)[C@H]1Cl [Lindane]
EC50 [3]: 22 µM | Chlorophyll Content EC10 [1, 7]: 0.0039 (0.0016–0.0061) mM | Frond Number EC10 [1, 7]: 0.0048 (0.0036–0.0060) mM | Surface Area EC10 [1, 7]: 0.0040 (0.0021–0.0059) mM | Chlorophyll Content EC10 ([1]; 168 hour (7 day), 95% confidence interval in brackets, listed as lindane): 0.0039 mM | EC50 [1, 6]: 6.1 µM | EC50 ([1]; read-out: Frond Number EC50): 7.3 µM | EC50 ([1]; read-out: Surface Area EC50): 11 µM | Body Length EC10 [2, 8]: 0.048 (0–0.21) mM | Nose Touch EC10 [2, 8]: 0.020 (0–0.051) mM | Survival EC10 [2, 8]: 0.055 (0–0.45) mM | EC50 ([2]; read-out: Body Length EC50): 540 µM | EC50 ([2]; read-out: Nose Touch EC50): 140 µM | EC50 ([2]; read-out: Survival EC50): 38 µM | LogP [4]: 3.8 | Solubility in water [5]: 2 µg/mL (≈ 0.00688 mM)

CON(C)C(=O)Nc1ccc(Cl)c(Cl)c1 [Linuron]
EC50 [3]: 63 µM | Chlorophyll Content EC10 [1, 7]: 0.00010 (0.000069–0.00013) mM | Frond Number EC10 [1, 7]: 0.00015 (0.00013–0.00016) mM | Surface Area EC10 [1, 7]: 0.00014 (0.00013–0.00016) mM | Chlorophyll Content EC10 ([1]; 168 hour (7 day), 95% confidence interval in brackets, listed as linuron): 0.00010 mM | EC50 [1, 6]: 0.15 µM | EC50 ([1]; read-out: Frond Number EC50): 0.18 µM | EC50 ([1]; read-out: Surface Area EC50): 0.18 µM | Body Length EC10 [2, 8]: 0.036 (0.0030–0.070) mM | Nose Touch EC10 [2, 8]: 0.056 (0.029–0.083) mM | Survival EC10 [2, 8]: 0.29 (0–1.3) mM | EC50 ([2]; read-out: Body Length EC50): 220 µM | EC50 ([2]; read-out: Nose Touch EC50): 150 µM | EC50 ([2]; read-out: Survival EC50): 650 µM

C[n+]1ccc(-c2cc[n+](C)cc2)cc1 [Paraquat]
EC50 [3]: 44 µM | Chlorophyll Content EC10 [1, 7]: 0.00014 (0.00012–0.00016) mM | Frond Number EC10 [1, 7]: 0.000090 (0.000080–0.000010) mM | Surface Area EC10 [1, 7]: 0.000098 (0.000060–0.000013) mM | EC50 [1, 6]: 0.16 µM | EC50 ([1]; read-out: Frond Number EC50): 0.12 µM | EC50 ([1]; read-out: Surface Area EC50): 0.11 µM | Body Length EC10 [2, 8]: 0.086 (0–0.63) mM | Nose Touch EC10 [2, 8]: 0.50 (0–1.3) mM | Survival EC10 [2, 8]: 0.044 (0–0.21) mM | EC50 ([2]; read-out: Body Length EC50): 1700 µM | EC50 ([2]; read-out: Nose Touch EC50): 860 µM | EC50 ([2]; read-out: Survival EC50): 50 µM | LogP [4]: 1.7 | Solubility in water [5]: >620000 µg/mL

Oc1c(Cl)c(Cl)c(Cl)c(Cl)c1Cl [Pentachlorophenol]
EC50 [3]: 1.9 µM | Chlorophyll Content EC10 [1, 7]: 0.00073 (0.00027–0.0012) mM | Frond Number EC10 [1, 7]: 0.0053 (0.0037–0.0070) mM | Surface Area EC10 [1, 7]: 0.0086 (0–0.031) mM | Chlorophyll Content EC10 [1, 9]: 0.00073 mM | Frond Number EC10 [1, 9]: 0.0053 mM | Surface Area EC10 [1, 9]: 0.0086 mM | EC50 [1, 6]: 2.3 µM | EC50 ([1]; read-out: Frond Number EC50): 8.4 µM | EC50 ([1]; read-out: Surface Area EC50): 88 µM | Body Length EC10 [2, 8]: 0.21 (0–0.98) mM | Nose Touch EC10 [2, 8]: 0.17 NA mM | Survival EC10 [2, 8]: 0.11 (0.099–0.13) mM | Body Length EC10 ([2]; 48 hour, 95% confidence interval in brackets, listed as pentachlorophenol): 0.21 mM | EC50 ([2]; read-out: Body Length EC50): 180 µM | EC50 ([2]; read-out: Nose Touch EC50): 190 µM | EC50 ([2]; read-out: Survival EC50): 170 µM

CCCN(CCC)c1c([N+](=O)[O-])cc(C(F)(F)F)cc1[N+](=O)[O-] [Trifluralin]
EC50 [3]: 10 µM | Chlorophyll Content EC10 [1, 7]: 0.000042 (0–0.00015) mM | Frond Number EC10 [1, 7]: 0.00037 (0–0.00075) mM | Surface Area EC10 [1, 7]: 0.00062 (0–0.0014) mM | Chlorophyll Content EC10 ([1]; 168 hour (7 day), 95% confidence interval in brackets, listed as trifluralin): 0.000042 mM | EC50 [1, 6]: 4.6 µM | EC50 ([1]; read-out: Frond Number EC50): 1.8 µM | EC50 ([1]; read-out: Surface Area EC50): 1.4 µM | Body Length EC10 [2, 8]: 0.19 (0–1.2) mM | Nose Touch EC10 [2, 8]: 0.19 (0–0.59) mM | Survival EC10 [2, 8]: 0.13 (0.13–0.14) mM | Nose Touch EC10 ([2]; 48 hour, 95% confidence interval in brackets, listed as trifluralin): 0.19 mM | EC50 ([2]; read-out: Body Length EC50): 180 µM | EC50 ([2]; read-out: Nose Touch EC50): 220 µM | EC50 ([2]; read-out: Survival EC50): 140 µM
